Assay results taken from patent US6335436B1, “Oligonucleotides active against drug-resistant bacteria” (priority 1995, dated 2002).

How the values were obtained:
Type in all cases: cell-based, Mycobacterium smegmatis
[1] = test system: M. smegmatis ATCC 607; assay: Inhibition of M. smegmatis growth in broth cultures (cell counts); conditions: for Cell Numbers per ml × 10^6: no ODS
[2] = test system: M. smegmatis mc^2155; assay: MIC of ethambutol in the presence of oligodeoxynucleotide phosphorothioates in broth cultures; conditions: Mycolicibacterium smegmatis, 336 h, no ODS, at least 99% inhibition of cell growth during two weeks
[3] = test system: M. smegmatis ATCC 607; assay: as above; conditions: Mycolicibacterium smegmatis, ATCC607, 336 h, read-out: MIC of ethambutol

N[C@@H]1CONC1=O [D-cycloserine]
Cell Numbers per ml × 10^6 ([1]; Table IV, free D-cycloserine 1 μg/ml alone, 24 hrs): 617 × 10^6 cells per ml | Cell Numbers per ml × 10^6 ([1]; Table IV, free D-cycloserine 1 μg/ml alone, 48 hrs): 549 × 10^6 cells per ml | Cell Numbers per ml × 10^6 ([1]; Table IV, free D-cycloserine 1 μg/ml alone, 72 hrs): 504 × 10^6 cells per ml | Cell Numbers per ml × 10^6 ([1]; Table IV, free D-cycloserine 5 μg/ml alone, 24 hrs): 551 × 10^6 cells per ml | Cell Numbers per ml × 10^6 ([1]; Table IV, free D-cycloserine 5 μg/ml alone, 48 hrs): 482 × 10^6 cells per ml | Cell Numbers per ml × 10^6 ([1]; Table IV, free D-cycloserine 5 μg/ml alone, 72 hrs): 420 × 10^6 cells per ml | Cell Numbers per ml × 10^6 ([1]; Table IV, free D-cycloserine 30 μg/ml alone, 24 hrs): 363 × 10^6 cells per ml | Cell Numbers per ml × 10^6 ([1]; Table IV, free D-cycloserine 30 μg/ml alone, 48 hrs): 291 × 10^6 cells per ml | Cell Numbers per ml × 10^6 ([1]; Table IV, free D-cycloserine 30 μg/ml alone, 72 hrs): 236 × 10^6 cells per ml | inhibition of growth ([1]; free D-cycloserine in liquid medium, 1.0 μg/ml): minimal inhibition of growth | inhibition of M. smegmatis growth ([1]; free D-cycloserine in liquid medium, 10-30 μg/ml): significant inhibition

CC[C@@H](CO)NCCN[C@@H](CC)CO [Ethambutol, ethambutol]
MIC [2]: 30 µg/mL | Cell Numbers per ml × 10^6 ([1]; Table I, ethambutol 0.5 ug/ml alone, 24 hrs): 71 × 10^6 cells per ml | Cell Numbers per ml × 10^6 ([1]; Table I, ethambutol 0.5 ug/ml alone, 48 hrs): 240 × 10^6 cells per ml | Cell Numbers per ml × 10^6 ([1]; Table I, ethambutol 0.5 ug/ml alone, 72 hrs): 411 × 10^6 cells per ml | Cell Numbers per ml × 10^6 ([1]; Table I, ethambutol 1 ug/ml alone, 24 hrs): 39 × 10^6 cells per ml | Cell Numbers per ml × 10^6 ([1]; Table I, ethambutol 1 ug/ml alone, 48 hrs): 109 × 10^6 cells per ml | Cell Numbers per ml × 10^6 ([1]; Table I, ethambutol 1 ug/ml alone, 72 hrs): 172 × 10^6 cells per ml | Cell Numbers per ml × 10^6 ([1]; Table I, ethambutol 5 ug/ml alone, 24 hrs): 25 × 10^6 cells per ml | Cell Numbers per ml × 10^6 ([1]; Table I, ethambutol 5 ug/ml alone, 48 hrs): 68 × 10^6 cells per ml | Cell Numbers per ml × 10^6 ([1]; Table I, ethambutol 5 ug/ml alone, 72 hrs): 111 × 10^6 cells per ml | Cell Numbers per ml × 10^6 ([1]; Table III, ethambutol 0.5 μg/ml alone, 24 hrs): 77 × 10^6 cells per ml | Cell Numbers per ml × 10^6 ([1]; Table III, ethambutol 0.5 μg/ml alone, 48 hrs): 189 × 10^6 cells per ml | Cell Numbers per ml × 10^6 ([1]; Table III, ethambutol 0.5 μg/ml alone, 72 hrs): 388 × 10^6 cells per ml | MIC [3]: 25 µg/mL
